Test results reported in patent US4820715A, “Anti-emetic quinuclidinyl benzamides” (Bristol-Myers Company, priority 1987, dated 1989).
pEC50, pIC50: −log10 of the molar value. Counter-ions that a name gives are not always drawn.

What was measured:
[1] = target: dopaminergic (D2) receptors (Rattus norvegicus, UniProt P61169); test: biochemical; format: binding; conditions: striatal rat brain homogenates, ^3H-spiperone, 37° C., 15 minutes; read-out: 3H-Spiperone Displacement IC50
Method: Rats (150±10 g; Charles River) were decapitated, the corpus striatum dissected out and frozen on dry ice. The tissues were pooled and stored at -80° C. until used. Homogenates (Brinkmann Polytron) of the corpus striatum in cold HEPES.KOH buffer (final pH=7.4) were centrifuged at 39,000×G. The supernatant was discarded and the pellets were re-suspended in HEPES.KOH buffer and re-centrifuged as above.
Tests to determine the Inhibitory Concentration50 (IC50) of the compounds of Formula I and reference compounds versus ^3 H-spiperone were conducted as follows. Tubes containing either 100 μL of buffer mixture (for total binding), 100 μL of buffer mixture plus 100 μL of 10^-4 M D(+)-butaclamol (for blanks, i.e. non-specific binding), or 100 μL of buffer mixture containing 10^-7, 10^-6 or 10^-5 M test compound were prepared. To each were added 100 μL of a solution of ^3 H-spiperone (New England Nuclear) in buffer mixture (2000 c.p.m. in the incubation mixture) and 800 μL of the striatal tissue suspension. The tubes were then diluted to 1 mL with buffer mixture, giving a final concentration of 10^-8, 10^-7 or 10^-6 M test compound and approximately 100 pM ^3 H-spiperone. The samples were incubated at 37° C. for 15 minutes, filtered in vacuo on glass fiber filters and counted by liquid scintillation spectrometry. […] All samples were run in duplicate.

[2] = system: Apomorphine-Induced Emesis; test: Antagonism of Apomorphine-Induced Emesis in Dogs; format: in vivo, beagle dogs; conditions: Canis lupus familiaris, sc; s.c. 30 minutes prior to apomorphine 0.3 mg/kg; dog; read-out: Antagonism of Apomorphine-Induced Emesis in the Dog ED50
Method: Unfasted beagle dogs of both sexes were used as test subjects. Test compounds and apomorphine were each administered subcutaneously as aqueous solutions, with the test compound being administered 30 minutes prior to the administration of the apormorphine.
Apomorphine was administered at a dose of 0.3 mg/kg. […] All tests were run in at least two dogs.

Cisplatin-Induced Emesis = test: Antagonism of Cisplatin-Induced Emesis in the Ferret; format: in vivo, Fitch ferrets; conditions: Mustela putorius, iv, 4 h, i.v. × 2, read-out: Antagonism of Cisplatin-Induced Emesis in the Ferret, % Protection
Description: The ventral and dorsal area of the neck is shaved and a 3 cm incision is made. The left jugular vein is exposed and ligated with a silk suture at the cephalic end. The indwelling catheter is constructed of Silastic tubing 18 cm in length (0.020 inch I.D.×0.037 inch O.D.) with a 2 cm polyethylene sleeve (0.045 inch I.D.×0.062 inch O.D.) filled with heparin (1000 units/ml) and sealed at the exposed end with a 23 gauge×1 inch needle crimped at both ends. A small cut is made in the jugular and the catheter inserted, allowing the free end to be delivered through a 13 gauge×5 cm trochar under the skin and attached to the nape of the neck with a silk suture. The ferrets are housed in individual cages and allowed 2-4 days recovery before testing. On the test day, the test compounds were administered i.v. […] The cisplatin solution was prepared by adding 70° C. physiological saline, stirring and sonicating until dissolved. The resulting solution (4 mg/ml) was maintained at 40° C. and administered i.v. ([…]) via the catheter. Following administration of cisplatin, the ferrets were observed continuously for four hours and emetic episodes recorded. Two or more emetic episodes within a one-minutes period was considered as a single episode. The ferrets were euthanized with T-61 i.v. at the termination of the experiment, and proper placement of the catheter was verified.

[3] = system: field-stimulated guinea pig ileum; test: Gastrokinetic Activity: contraction of field-stimulated guinea pig ileum preparations; design: species or system guinea pig (Hartley); conditions: Cavia porcellus; for EC30: effective concentration30, read-out: EC30 (95% C.L.); for pEC50: effective concentration50, read-out: EC50 (95% C.L.); for minimal effective concentration: read-out: Minimum Effective Concentration
Method: This activity is considered to be correlated with gastrokinetic (prokinetic) activity in vivo, i.e. enhancement of gastric motility and gastric emptying.
Normal, male guinea pigs (Hartley; Charles River) weighing […] are sacrificed by cervical dislocation. The terminal portion of the ileum was removed after discarding a 10 cm segment nearest to the ileocecal junction. The strips, 3-4 cm in length, were mounted in a 20 ml organ bath containing Krebs physiological buffer solution. The buffer was bubbled with 95% O2 -5% CO2 and kept at 37° C. The resting tension was adjusted to 1.0 g, and the tissues were equilibrated without stimulation for 15 minutes. For electrical stimulation, a platinum wire (cathode) was threaded up through the lumen and another platinum wire (anode) was attached to the glass rod that suspended the muscle. Tissues were stimulated coaxially at 1.5 times the voltage necessary to produce maximum twitch height, with single pulses, 0.5 msec in duration, delivered once every 10 seconds. After the 15 minute equilibration period (without stimulation), the stimulator (Grass S88 Stimulator) was turned on and the tissues were allowed to stabilize for approximately 1 hour, or until the twitch height remained constant, with washes every 20 minutes.

[4] = read-out: Average % Maximum Increase

dopaminergic (D2) receptors, sequence (P61169 whole entry): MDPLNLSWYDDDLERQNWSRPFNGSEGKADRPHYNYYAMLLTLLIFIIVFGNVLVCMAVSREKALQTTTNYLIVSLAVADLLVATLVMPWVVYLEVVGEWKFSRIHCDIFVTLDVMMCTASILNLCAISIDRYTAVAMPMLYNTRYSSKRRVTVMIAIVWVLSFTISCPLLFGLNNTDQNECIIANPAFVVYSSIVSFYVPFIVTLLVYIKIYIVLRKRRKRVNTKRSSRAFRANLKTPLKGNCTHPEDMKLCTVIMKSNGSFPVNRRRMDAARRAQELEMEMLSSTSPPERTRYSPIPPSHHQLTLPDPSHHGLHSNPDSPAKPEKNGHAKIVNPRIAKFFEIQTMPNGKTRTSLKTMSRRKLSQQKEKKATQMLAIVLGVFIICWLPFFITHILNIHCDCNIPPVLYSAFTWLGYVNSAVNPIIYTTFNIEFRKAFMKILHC

Compound | pIC50 [1] | ED50 [2] [mg/kg] | inhibition in vivo at 3 mg/kg (Cisplatin-Induced Emesis) [%] | activation at 30 µM [3, 4] [%] | EC30 [3] [µM] | pEC50 [3] | minimal effective concentration [3] [µM] | activation at 3 µM ([3]; at 3 μM, read-out: Average % Maximum Increase) [%] | inhibition in vivo at 1 mg/kg (Cisplatin-Induced Emesis) [%] | activation at 10 µM ([3]; at 10 μM, read-out: Average % Maximum Increase) [%]
CO[C@@H]1CN(CCCOc2ccc(F)cc2)CC[C@@H]1NC(=O)c1cc(Cl)c(N)cc1OCCSC.O (relative stereo) [Example 61, Cis-4-amino-5-chloro-N-{1-[3-(4-fluorophenoxy)propyl]-3-methoxy-4-piperidinyl}-2-[2-(methylthio)ethoxy]benzamide monohydrate] | 6.12 | > 3 | 71 | – | – | – | – | – | – | –
CO[C@@H]1CN(CCCOc2ccc(F)cc2)CC[C@@H]1NC(=O)c1cc(Cl)c(N)cc1OCC(N)=O (relative stereo) [Example 62, Cis-4-amino-2-(2-amino-2-oxoethoxy)-5-chloro-N-{1-[3-(4-fluorophenoxy)propyl]-3-methoxy-4-piperidinyl}benzamide sesquihydrate] | < 6.00 | > 3 | 71 | – | – | – | – | – | – | –
C=CCN1CCCC1CNC(=O)c1cc2[nH]nnc2cc1OC (stereo not drawn) [Alizapride, reference compound] | 6.54 | 0.3 | 27 | – | – | – | – | – | – | –
COc1cc(N)c(Cl)cc1C(=O)NC1CCN(Cc2ccccc2)CC1 [Clebopride, reference compound] | 7.96 | 0.04 | 70 | – | – | – | – | – | – | –
C=CCC(C)(Oc1cc(N)c(Cl)cc1C(=O)NCCN(CC)CC)C(C)=O (stereo not drawn) [Example 8, 4-Amino-5-chloro-N-[2-(diethylamino)ethyl]-2-[(3-methyl)-5-hexen-2-on-3-yl]oxybenzamide] | < 6.00 | > 3 | 95 | – | – | – | – | – | – | –
CCN(CC)CCNC(=O)c1cc(Cl)c(N)cc1OCC(C)=NOC [Example 11, 4-Amino-5-chloro-N-[2-(diethylamino)ethyl]-2-[(2-methoxyimino)propan-1-yl]oxybenzamide] | < 6.00 | > 3 | 90 | – | – | – | – | – | – | –
CCN(CC)CCNC(=O)c1cc(Cl)c(N)cc1OC(C)C#N (stereo not drawn) [Example 14, 4-Amino-5-chloro-[2-(diethylamino)ethyl]-2-(1-cyano)ethoxybenzamide] | – | > 3 | 62 | 55 | 4.3 | 4.74 | 0.1 | – | – | –
CCN(CC)CCNC(=O)c1cc(Cl)c(N)cc1OCc1cc(C)no1 [Example 19, 4-Amino-5-chloro-N-[2-(diethylamino)ethyl]-2-(3-methylisoxazol-5-yl)methoxybenzamide] | – | > 3 | 72 | – | 1.7 | 5.23 | 0.1 | 39 | – | –
CCN(CC)CCNC(=O)c1cc(Cl)c(N)cc1OCCSC [Example 20, 4-Amino-5-chloro-N-[2-(diethylamino)ethyl]-2-[2-(methylthio)ethoxy]benzamide] | < 6.00 | > 3 | 50 | – | – | – | – | – | – | –
CC(=O)C(C)Oc1cc(N)c(Cl)cc1C(=O)NCCN(C)C (stereo not drawn) [Example 32, 4-Amino-2-(2-butanon-3-yl)oxy-5-chloro-N-[2-(dimethylamino)ethyl]benzamide] | < 6.00 | > 3 | – | – | – | – | – | – | 72 | –
CCN(CC)CCNC(=O)c1cc(Cl)c(N)cc1OC(C)C(C)=NO (stereo not drawn) [Example 34, 4-Amino-5-chloro-N-[2-(diethylamino)ethyl]-2-(2-hydroxyiminobut-3-yl)oxybenzamide] | < 6.00 | > 3 | – | – | – | – | – | – | 54 | –
CCOC(=O)C(Oc1cc(N)c(Cl)cc1C(=O)NCCN(CC)CC)c1ccccc1 (stereo not drawn) [Example 35, α-{3-Amino-4-chloro-6-[N-(2-[diethylamino]ethyl)]carbomoylphenoxy}phenylacetic acid, ethyl ester] | < 6.00 | > 3 | 72 | – | – | – | – | – | – | –
CCN(CC)CCNC(=O)c1cc(Cl)c(N)cc1OCCCN1C(=O)c2ccccc2C1=O [Example 38, 4-Amino-5-chloro-N-[2-(diethylamino)ethyl]-2-[3-(phthalimido)propoxy]benzamide] | < 6.00 | > 3 | 57 | – | – | – | – | – | – | –
CCN(CC)CCNC(=O)c1cc(Cl)c(N)cc1OCCCN [Example 39, 4-Amino-2-(3-aminopropoxy)-5-chloro-N-[2-(diethylamino)ethyl]benzamide] | < 6.00 | > 3 | 71 | – | – | – | – | – | – | –
CCOC(=O)C=C(COc1cc(N)c(Cl)cc1C(=O)NCCN(CC)CC)OC [Example 42, 4-Amino-5-chloro-N-[2-(diethylamino)ethyl]-2-(ethyl-3-methoxycroton-4-yl)oxybenzamide] | < 6.00 | > 3 | 95 | – | – | – | – | – | – | –
CCN(CC)CCNC(=O)c1cc(Cl)c(N)cc1OCC1CNC(=O)O1 (stereo not drawn) [Example 44, 4-Amino-5-chloro-N[2-(diethylamino)ethyl]-2-(oxazolidin)-2-one-5-ylmethyl)oxybenzamide Fumarate] | < 6.00 | > 3 | 71 | – | – | – | – | – | – | –
CCN(CC)CCNC(=O)c1cc(Cl)c(N)cc1OCCN [Example 47, 4-Amino-2-(2-aminoethoxy)-5-chloro-N-[2-(diethylamino)ethyl]benzamide] | < 6.00 | > 3 | 8 | – | – | – | – | – | – | –
CCN(CC)CCNC(=O)c1cc(Cl)c(N)cc1OCCCSC [Example 49, 4-Amino-5-chloro-N-[2-(diethylamino)ethyl]-2-[3-(methylthio)propoxy]benzamide] | < 6.00 | > 3 | 62 | – | – | – | – | – | – | –
CCN(CC)CCNC(=O)c1cc(Cl)c(N)cc1OCC1=NCCN1 [Example 51, 4-Amino-5-chloro-N-[2-(diethylamino)ethyl]-2-(1H-4,5-dihydroimidazol-2-yl)methoxybenzamide] | – | > 3 | 71 | – | 0.23 | 5.30 | 0.03 | – | – | 51
CCN(CC)CCNC(=O)c1cc(Cl)c(N)cc1OCCCl [Example 53, 4-Amino-5-chloro-2-(2-chloroethoxy)-N-[2-(2-diethylamino)ethyl]benzamide] | < 6.00 | > 3 | 91 | – | – | – | – | – | – | –
CCN(CC)CCNC(=O)c1cc(Cl)c(N)cc1OCC(=O)N(C)C [Example 55] | < 6.00 | > 3 | 66 | – | – | – | – | – | – | –
CCN(CC)CCNC(=O)c1cc(Cl)c(N)cc1OC [Metoclopramide, reference compound] | – | 0.5 | 89 | 62 | 1.6 | 4.96 | 0.03 | – | – | –
